11 compounds from patent US10738026B2, “Isoquinoline derivatives and use thereof” (Purdue Pharma L.P., priority 2014, dated 2020) can be followed below.

The structures appear in SMILES notation.

In one experiment the target is human Nav1.7 (Homo sapiens (Human), UniProt Q15858). The experiment is described as follows: FLIPR or FLIPR TETRA sodium dye assay with KCl and test article pre-incubation (sodium mobilization). The format is cell-based. The note with it: recombinant human Nav1.7 in HEK293; veratridine and scorpion venom as agonists.
Chain of human Nav1.7 (Q15858 with tags, fused parts or gaps limits assumed): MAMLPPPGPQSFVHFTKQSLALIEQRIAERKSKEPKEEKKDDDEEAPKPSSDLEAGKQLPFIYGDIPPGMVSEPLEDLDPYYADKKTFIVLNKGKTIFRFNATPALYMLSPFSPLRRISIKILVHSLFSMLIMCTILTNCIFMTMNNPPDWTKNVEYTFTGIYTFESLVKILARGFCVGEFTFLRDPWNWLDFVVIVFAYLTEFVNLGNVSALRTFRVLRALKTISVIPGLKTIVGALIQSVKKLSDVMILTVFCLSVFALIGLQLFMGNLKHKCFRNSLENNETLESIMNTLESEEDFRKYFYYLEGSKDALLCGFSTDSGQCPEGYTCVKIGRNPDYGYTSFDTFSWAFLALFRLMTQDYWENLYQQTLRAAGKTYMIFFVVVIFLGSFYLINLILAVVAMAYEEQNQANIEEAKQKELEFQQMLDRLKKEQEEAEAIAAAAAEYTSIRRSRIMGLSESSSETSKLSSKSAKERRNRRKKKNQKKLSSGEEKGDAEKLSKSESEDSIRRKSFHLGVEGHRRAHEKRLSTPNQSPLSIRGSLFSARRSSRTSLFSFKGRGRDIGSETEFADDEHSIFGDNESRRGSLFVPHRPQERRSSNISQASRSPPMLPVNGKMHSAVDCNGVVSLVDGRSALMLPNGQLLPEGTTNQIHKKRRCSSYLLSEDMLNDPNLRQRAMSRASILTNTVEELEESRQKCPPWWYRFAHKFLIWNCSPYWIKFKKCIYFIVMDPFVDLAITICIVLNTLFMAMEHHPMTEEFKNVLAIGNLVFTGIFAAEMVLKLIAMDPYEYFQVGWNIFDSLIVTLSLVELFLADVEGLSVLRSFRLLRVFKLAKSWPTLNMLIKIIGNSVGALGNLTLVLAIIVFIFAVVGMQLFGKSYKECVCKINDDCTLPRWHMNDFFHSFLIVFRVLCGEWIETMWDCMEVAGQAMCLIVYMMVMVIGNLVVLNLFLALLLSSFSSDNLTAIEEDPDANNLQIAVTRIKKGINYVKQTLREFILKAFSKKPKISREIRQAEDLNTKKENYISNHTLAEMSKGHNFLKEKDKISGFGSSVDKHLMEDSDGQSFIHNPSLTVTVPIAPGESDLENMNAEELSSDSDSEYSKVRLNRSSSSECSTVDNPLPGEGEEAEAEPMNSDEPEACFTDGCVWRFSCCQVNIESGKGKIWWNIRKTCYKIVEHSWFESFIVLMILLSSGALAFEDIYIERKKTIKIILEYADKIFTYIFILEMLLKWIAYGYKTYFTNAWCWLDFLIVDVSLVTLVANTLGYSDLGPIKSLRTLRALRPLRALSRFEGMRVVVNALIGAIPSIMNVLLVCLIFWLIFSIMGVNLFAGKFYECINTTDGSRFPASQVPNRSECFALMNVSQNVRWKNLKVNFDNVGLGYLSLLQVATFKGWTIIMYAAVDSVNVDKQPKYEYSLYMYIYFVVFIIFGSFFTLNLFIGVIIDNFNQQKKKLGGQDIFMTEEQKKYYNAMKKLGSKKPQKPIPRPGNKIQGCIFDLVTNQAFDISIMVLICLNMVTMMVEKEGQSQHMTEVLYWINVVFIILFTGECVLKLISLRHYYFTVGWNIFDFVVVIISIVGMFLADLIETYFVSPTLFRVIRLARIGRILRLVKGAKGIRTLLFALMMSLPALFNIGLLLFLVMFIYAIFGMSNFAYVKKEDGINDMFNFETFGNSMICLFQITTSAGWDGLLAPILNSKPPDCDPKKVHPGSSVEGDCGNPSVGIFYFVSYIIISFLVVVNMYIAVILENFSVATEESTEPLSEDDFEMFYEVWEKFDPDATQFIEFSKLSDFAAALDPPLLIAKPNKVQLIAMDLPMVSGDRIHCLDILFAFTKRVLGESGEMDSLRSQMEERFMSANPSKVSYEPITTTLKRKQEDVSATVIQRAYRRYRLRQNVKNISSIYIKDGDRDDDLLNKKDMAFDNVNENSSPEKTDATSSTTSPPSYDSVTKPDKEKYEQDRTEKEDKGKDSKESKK
The next experiment deals with hNav1.7 (Homo sapiens (Human), UniProt Q15858). The experiment is described as follows: Electrophysiology (EP) assay, whole-cell patch clamp in hNav1.7 expressing HEK-293 cells. The format is cell-based. To be noted: hNav1.7 HEK-293 cells; affinity for the inactivated state of the channel; read-out: Nav1.7 Activity (μM) EP assay Ki.
Chain of hNav1.7 (Q15858 other isoform, or with tags, fused parts or gaps): as the sequence (Q15858 with tags, fused parts or gaps limits assumed) above

As usually defined, the IC50 is the point on the concentration scale where inhibition reaches its midpoint. `C[C@H](Nc1cc(C(N)=O)nc(N2CCc3c(cccc3-c3ccc(C(F)(F)F)cc3)C2)n1)C(N)=O` [Compound 22, (S)-6-((1-amino-1-oxopropan-2-yl)amino)-2-(5-(4-(trifluoromethyl)phenyl)-3,4-dihydroisoquinolin-2(1H)-yl)pyrimidine-4-carboxamide]: the half-maximal inhibitory concentration (IC50) on human Nav1.7 was 0.428 ± 0.069 µM. For the same compound, on hNav1.7, the Ki is 0.317 ± 0.079 µM.
`C[C@H](Nc1cc(C(N)=O)nc(N2CCc3c(cccc3-c3ccc(C(F)(F)F)cn3)C2)n1)C(N)=O` [Compound 23, (S)-6-((1-amino-1-oxopropan-2-yl)amino)-2-(5-(5-(trifluoromethyl)-pyridin-2-yl)-3,4-dihydroisoquinolin-2(1H)-yl)pyrimidine-4-carboxamide]: at human Nav1.7, the concentration for half-maximal inhibition (IC50) is above 20 µM.
`C[C@H](Nc1cc(C(N)=O)nc(N2CCc3c(cccc3-c3ccccc3C(F)(F)F)C2)n1)C(N)=O` [Compound 24, (S)-6-((1-amino-1-oxopropan-2-yl)amino)-2-(5-(2-(trifluoromethyl)-phenyl)-3,4-dihydroisoquinolin-2(1H)-yl)pyrimidine-4-carboxamide]: at human Nav1.7, the half-maximal inhibitory concentration (IC50) was 2.35 ± 0.125 µM.
In the case of `NC(=O)c1cccc(N2CCc3c(cccc3-c3ccc(C(F)(F)F)cc3)C2)n1` [Compound 25, 6-(5-(4-(trifluoromethyl)phenyl)-3,4-dihydroisoquinolin-2(1H)-yl)picolinamide], at human Nav1.7, the IC50 was found to be 0.987 ± 0.072 µM.
For `NC(=O)[C@@H](O)[C@H](O)c1cccc(N2CCc3c(cccc3-c3ccc(C(F)(F)F)cc3)C2)n1` [Compound 26, (2S,3R)-2,3-dihydroxy-3-(6-(5-(4-(trifluoromethyl)phenyl)-3,4-dihydroisoquinolin-2(1H)-yl)pyridin-2-yl)propanamide], the IC50 at human Nav1.7 stood at 0.251 ± 0.017 µM. Also, the Ki on hNav1.7 is 0.051 ± 0.014 µM.
Regarding `C[C@H](Nc1cc(C(N)=O)nc(N2CCc3c(cccc3-c3cccc(C(F)(F)F)c3)C2)n1)C(N)=O` [Compound 27, (S)-6-((1-amino-1-oxopropan-2-yl)amino)-2-(5-(3-(trifluoromethyl)phenyl)-3,4-dihydroisoquinolin-2(1H)-yl)pyrimidine-4-carboxamide], at human Nav1.7, the IC50 was 1.52 ± 0.122 µM. The Ki on hNav1.7 is 0.24 ± 0.041 µM.
For `C[C@H](Nc1cc(C(N)=O)nc(N2CCc3c(cccc3C3=CCCCC3)C2)n1)C(N)=O` [Compound 28, (S)-6-((1-amino-1-oxopropan-2-yl)amino)-2-(5-(cyclohex-1-en-1-yl)-3,4-dihydroisoquinolin-2(1H)-yl)pyrimidine-4-carboxamide], the half-inhibitory concentration (IC50) at human Nav1.7 was 2.84 ± 0.112 µM.
As for `O=S(=O)(Nc1ncns1)c1cccc(N2CCc3c(cccc3-c3ccc(C(F)(F)F)cc3)C2)n1` [Compound 29, N-(1,2,4-thiadiazol-5-yl)-6-(5-(4-(trifluoromethyl)phenyl)-3,4-dihydroisoquinolin-2(1H)-yl)pyridine-2-sulfonamide], the IC50 at human Nav1.7 amounted to 0.291 ± 0.019 µM. Also, the Ki at hNav1.7 amounted to 0.535 ± 0.145 µM.
On to `C[C@H](Nc1cc(C(N)=O)nc(N2CCc3c(cccc3C3CCCCC3)C2)n1)C(N)=O` [Compound 31, (S)-6-((1-amino-1-oxopropan-2-yl)amino)-2-(5-cyclohexyl-3,4-dihydroisoquinolin-2(1H)-yl)pyrimidine-4-carboxamide], for which the IC50 at human Nav1.7 worked out at 2.2 ± 0.898 µM.
Consider `NC(=O)c1cc(N2CCc3c(cccc3-c3ccc(C(F)(F)F)cc3)C2)cc([C@H](O)CO)n1` [Compound 35, (S)-6-(1,2-dihydroxyethyl)-4-(5-(4-(trifluoromethyl)phenyl)-3,4-dihydroisoquinolin-2(1H)-yl)picolinamide], for which the IC50 at human Nav1.7 is 0.502 ± 0.031 µM. Moreover, the Ki on hNav1.7 worked out at 0.232 ± 0.065 µM.
The like results for `NC(=O)c1cc(N2CCc3c(cccc3-c3ccc(C(F)(F)F)cc3)C2)cc([C@@H](O)CO)n1` [Compound 36, (R)-6-(1,2-dihydroxyethyl)-4-(5-(4-(trifluoromethyl)phenyl)-3,4-dihydro-isoquinolin-2(1H)-yl)picolinamide] were, in that order, 1.54 ± 0.229 µM and 0.257 ± 0.046 µM.
